The source of these data is patent US12077537B2 (Gilead Sciences, Inc., priority 2020, dated 2024).

For orientation: EC50 means the midpoint of the concentration-response curve. A high value points to lower potency in that assay.

This assay concerns HIV-IIIb. In words: Antiviral assay in MT4 cells. The following applies: Human immunodeficiency virus 1, MT4, 120 h; MT-4 cells mixed with HIV-IIIb at m.o.i. 0.003; 5 days at 37° C.; CellTiter-Glo luminescence; 50% decrease in signal, a measure of HIV-1 replication. In kind it is cell-based. The procedure, abridged:
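MT-4 cells were infected with HIV-IIIb at m.o.i. 0.003 for 1 hour, then added to 3-fold serially diluted compound (10 concentrations, quadruplicate) in medium with 10% FBS. After 5 days at 37° C, cell viability was read by CellTiter-Glo chemiluminescence.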
(In general: ATP-based viability assays read luminescence as a measure of living cells.)

Compound `Cn1cc(-c2nc3nc([C@H](Cc4cc(F)cc(F)c4)NC(=O)Cn4nc(C(F)F)c5c4C(F)(F)[C@@H]4C[C@H]54)c(-c4ccc(Cl)c5c(NS(C)(=O)=O)nn(C)c45)cc3[nH]2)cn1` [Example 98, N—((S)-1-(6-(4-chloro-1-methyl-3-(methylsulfonamido)-1H-indazol-7-yl)-2-(1-methyl-1H-pyrazol-4-yl)-1H-imidazo[4,5-b]pyridin-5-yl)-2-(3,5-difluorophenyl)ethyl)-2-((3bS,4aR)-3-(difluoromethyl)-5,5-difluoro-3b,4,4a,5-tetrahydro-1H-cyclopropa[3,4]cyclopenta[1,2-c]pyrazol-1-yl)acetamide] returned a half-maximal effective concentration (EC50) of 3 nM.
Turning to `Cc1nc2nc([C@H](Cc3cc(F)cc(F)c3)NC(=O)Cn3nc(C(F)F)c4c3C(F)(F)[C@@H]3C[C@H]43)c(-c3ccc(Cl)c4c(NS(C)(=O)=O)nn(C)c34)cc2[nH]1` [Example 99, N—((S)-1-(6-(4-chloro-1-methyl-3-(methylsulfonamido)-1H-indazol-7-yl)-2-methyl-1H-imidazo[4,5-b]pyridin-5-yl)-2-(3,5-difluorophenyl)ethyl)-2-((3bS,4aR)-3-(difluoromethyl)-5,5-difluoro-3b,4,4a,5-tetrahydro-1H-cyclopropa[3,4]cyclopenta[1,2-c]pyrazol-1-yl)acetamide], the EC50 turned out to be 1.6 nM.
`Cc1nc2nc([C@H](Cc3cc(F)cc(F)c3)NC(=O)Cn3nc(C(F)(F)F)c4c3C(F)(F)[C@@H]3C[C@H]43)c(-c3ccc(Cl)c4c(NS(C)(=O)=O)nn(C)c34)cc2[nH]1` [Example 100, N—((S)-1-(6-(4-chloro-1-methyl-3-(methylsulfonamido)-1H-indazol-7-yl)-2-methyl-1H-imidazo[4,5-b]pyridin-5-yl)-2-(3,5-difluorophenyl)ethyl)-2-((3bS,4aR)-5,5-difluoro-3-(trifluoromethyl)-3b,4,4a,5-tetrahydro-1H-cyclopropa[3,4]cyclopenta[1,2-c]pyrazol-1-yl)acetamide] returned a half-maximal effective concentration (EC50) of 2.4 nM.
`COCc1nc2nc([C@H](Cc3cc(F)cc(F)c3)NC(=O)Cn3nc(C(F)(F)F)c4c3C(F)(F)[C@@H]3C[C@H]43)c(-c3ccc(Cl)c4c(NS(C)(=O)=O)nn(C)c34)cc2[nH]1` [Example 101, N—((S)-1-(6-(4-chloro-1-methyl-3-(methylsulfonamido)-1H-indazol-7-yl)-2-(methoxymethyl)-1H-imidazo[4,5-b]pyridin-5-yl)-2-(3,5-difluorophenyl)ethyl)-2-((3bS,4aR)-5,5-difluoro-3-(trifluoromethyl)-3b,4,4a,5-tetrahydro-1H-cyclopropa[3,4]cyclopenta[1,2-c]pyrazol-1-yl)acetamide] gave an EC50 of 2.1 nM.
`COCc1nc2nc([C@H](Cc3cc(F)cc(F)c3)NC(=O)Cn3nc(C(F)F)c4c3C(F)(F)[C@@H]3C[C@H]43)c(-c3ccc(Cl)c4c(NS(C)(=O)=O)nn(C)c34)cc2[nH]1` [Example 102, N—((S)-1-(6-(4-chloro-1-methyl-3-(methylsulfonamido)-1H-indazol-7-yl)-2-(methoxymethyl)-1H-imidazo[4,5-b]pyridin-5-yl)-2-(3,5-difluorophenyl)ethyl)-2-((3bS,4aR)-3-(difluoromethyl)-5,5-difluoro-3b,4,4a,5-tetrahydro-1H-cyclopropa[3,4]cyclopenta[1,2-c]pyrazol-1-yl)acetamide]: the EC50 came out at 1.5 nM.
`COCc1nc2nc([C@H](Cc3cc(F)cc(F)c3)NC(=O)Cn3nc(C(F)F)c4c3C(F)(F)[C@@H]3C[C@H]43)c(-c3ccc(Cl)c4c(N)nn(C)c34)cc2[nH]1` [Example 103, N—((S)-1-(6-(3-amino-4-chloro-1-methyl-1H-indazol-7-yl)-2-(methoxymethyl)-1H-imidazo[4,5-b]pyridin-5-yl)-2-(3,5-difluorophenyl)ethyl)-2-((3bS,4aR)-3-(difluoromethyl)-5,5-difluoro-3b,4,4a,5-tetrahydro-1H-cyclopropa[3,4]cyclopenta[1,2-c]pyrazol-1-yl)acetamide] yielded a concentration giving a half-maximal response (EC50) of 5.9 nM.
The result for `CC(C)c1nc2nc([C@H](Cc3cc(F)cc(F)c3)NC(=O)Cn3nc(C(F)F)c4c3C(F)(F)[C@@H]3C[C@H]43)c(-c3ccc(Cl)c4c(NS(C)(=O)=O)nn(C)c34)cc2[nH]1` [Example 104, N—((S)-1-(6-(4-chloro-1-methyl-3-(methylsulfonamido)-1H-indazol-7-yl)-2-isopropyl-TH-imidazo[4,5-b]pyridin-5-yl)-2-(3,5-difluorophenyl)ethyl)-2-((3bS,4aR)-3-(difluoromethyl)-5,5-difluoro-3b,4,4a,5-tetrahydro-TH-cyclopropa[3,4]cyclopenta[1,2-c]pyrazol-1-yl)acetamide] reads 4.4 nM; that for `Cn1nc(NS(C)(=O)=O)c2c(Cl)ccc(-c3cc4[nH]c(C(C)(C)O)nc4nc3[C@H](Cc3cc(F)cc(F)c3)NC(=O)Cn3nc(C(F)F)c4c3C(F)(F)[C@@H]3C[C@H]43)c21` [Example 105, N—((S)-1-(6-(4-chloro-1-methyl-3-(methylsulfonamido)-1H-indazol-7-yl)-2-(2-hydroxypropan-2-yl)-1H-imidazo[4,5-b]pyridin-5-yl)-2-(3,5-difluorophenyl)ethyl)-2-((3bS,4aR)-3-(difluoromethyl)-5,5-difluoro-3b,4,4a,5-tetrahydro-1H-cyclopropa[3,4]cyclopenta[1,2-c]pyrazol-1-yl)acetamide], 4.9 nM.
Take `Cn1nc(NS(C)(=O)=O)c2c(Cl)ccc(-c3cc4[nH]c(C(C)(C)O)nc4nc3[C@H](Cc3cc(F)cc(F)c3)NC(=O)Cn3nc(C(F)(F)F)c4c3C(F)(F)[C@@H]3C[C@H]43)c21` [Example 106, N—((S)-1-(6-(4-chloro-1-methyl-3-(methylsulfonamido)-1H-indazol-7-yl)-2-(2-hydroxypropan-2-yl)-1H-imidazo[4,5-b]pyridin-5-yl)-2-(3,5-difluorophenyl)ethyl)-2-((3bS,4aR)-5,5-difluoro-3-(trifluoromethyl)-3b,4,4a,5-tetrahydro-1H-cyclopropa[3,4]cyclopenta[1,2-c]pyrazol-1-yl)acetamide]: the half-maximal effective concentration (EC50) came to 6.4 nM.
The result for `Cn1nc(NS(C)(=O)=O)c2c(Cl)ccc(-c3cc4c(nc3[C@H](Cc3cc(F)cc(F)c3)NC(=O)Cn3nc(C(F)(F)F)c5c3C(F)(F)[C@@H]3C[C@H]53)NCC(=O)N4)c21` [Example 107, N—((S)-1-(7-(4-chloro-1-methyl-3-(methylsulfonamido)-1H-indazol-7-yl)-2-oxo-1,2,3,4-tetrahydropyrido[2,3-b]pyrazin-6-yl)-2-(3,5-difluorophenyl)ethyl)-2-((3bS,4aR)-5,5-difluoro-3-(trifluoromethyl)-3b,4,4a,5-tetrahydro-1H-cyclopropa[3,4]cyclopenta[1,2-c]pyrazol-1-yl)acetamide] reads 42.2 nM.
The compound `Cn1nc(NS(C)(=O)=O)c2c(Cl)ccc(-c3cc4c(nc3[C@H](Cc3cc(F)cc(F)c3)NC(=O)Cn3nc(C(F)F)c5c3C(F)(F)[C@@H]3C[C@H]53)NCC(=O)N4)c21` [Example 108, N—((S)-1-(7-(4-chloro-1-methyl-3-(methylsulfonamido)-1H-indazol-7-yl)-2-oxo-1,2,3,4-tetrahydropyrido[2,3-b]pyrazin-6-yl)-2-(3,5-difluorophenyl)ethyl)-2-((3bS,4aR)-3-(difluoromethyl)-5,5-difluoro-3b,4,4a,5-tetrahydro-1H-cyclopropa[3,4]cyclopenta[1,2-c]pyrazol-1-yl)acetamide] came in with a half-maximal effective concentration (EC50) of 34.5 nM.
`Cn1nc(NS(C)(=O)=O)c2c(Cl)ccc(-c3cc4[nH]c(=O)[nH]c4nc3[C@H](Cc3cc(F)cc(F)c3)NC(=O)Cn3nc(C(F)F)c4c3C(F)(F)[C@@H]3C[C@H]43)c21` [Example 109, N—((S)-1-(6-(4-chloro-1-methyl-3-(methylsulfonamido)-1H-indazol-7-yl)-2-oxo-2,3-dihydro-1H-imidazo[4,5-b]pyridin-5-yl)-2-(3,5-difluorophenyl)ethyl)-2-((3bS,4aR)-3-(difluoromethyl)-5,5-difluoro-3b,4,4a,5-tetrahydro-1H-cyclopropa[3,4]cyclopenta[1,2-c]pyrazol-1-yl)acetamide]: the half-maximal effective concentration (EC50) stood at 36.8 nM.
For `Cn1nc(NS(C)(=O)=O)c2c(Cl)ccc(-c3cc4nc(C5CC5)oc4nc3[C@H](Cc3cc(F)cc(F)c3)NC(=O)Cn3nc(C(F)F)c4c3C(F)(F)[C@@H]3C[C@H]43)c21` [Example 110, N—((S)-1-(6-(4-chloro-1-methyl-3-(methylsulfonamido)-1H-indazol-7-yl)-2-cyclopropyloxazolo[5,4-b]pyridin-5-yl)-2-(3,5-difluorophenyl)ethyl)-2-((3bS,4aR)-3-(difluoromethyl)-5,5-difluoro-3b,4,4a,5-tetrahydro-1H-cyclopropa[3,4]cyclopenta[1,2-c]pyrazol-1-yl)acetamide], the EC50 came out at 11.9 nM.
As to `CC1(O)CN(c2nc3cc(-c4ccc(F)c(C(N)=O)c4)c([C@H](Cc4cc(F)cc(F)c4)NC(=O)Cn4nc(C(F)(F)F)c5c4C(F)(F)[C@@H]4C[C@H]54)nc3o2)C1` [Example 111, 5-(5-((S)-1-(2-((3bS,4aR)-5,5-difluoro-3-(trifluoromethyl)-3b,4,4a,5-tetrahydro-1H-cyclopropa[3,4]cyclopenta[1,2-c]pyrazol-1-yl)acetamido)-2-(3,5-difluorophenyl)ethyl)-2-(3-hydroxy-3-methylazetidin-1-yl)oxazolo[5,4-b]pyridin-6-yl)-2-fluorobenzamide], it took 156 nM to reach a half-maximal effect (EC50).
`Cn1nc(NS(C)(=O)=O)c2c(Cl)ccc(-c3cc4sc(O)nc4nc3[C@H](Cc3cc(F)cc(F)c3)NC(=O)Cn3nc(C(F)F)c4c3C(F)(F)[C@@H]3C[C@H]43)c21` [Example 112, N—((S)-1-(6-(4-chloro-1-methyl-3-(methylsulfonamido)-1H-indazol-7-yl)-2-hydroxythiazolo[4,5-b]pyridin-5-yl)-2-(3,5-difluorophenyl)ethyl)-2-((3bS,4aR)-3-(difluoromethyl)-5,5-difluoro-3b,4,4a,5-tetrahydro-1H-cyclopropa[3,4]cyclopenta[1,2-c]pyrazol-1-yl)acetamide] yielded an EC50 of 3.8 nM.
